Values of other authors as cited in patent publication US11919851B2, “Method for producing polyol-based esters of optionally acylated hydroxycarboxylic acids” (IOI Oleo GmbH, priority 2019, dated 2024).

Conditions: free acid and its salts; prior art statement

For `CC(O)CC(=O)O` (stereo not shown) [3-hydroxybutyric acid], the “adverse effects on oral administration” value is given as “can cause severe vomiting and nausea”.
